# Measurements published in patent publication US5916908A, “Pharmaceutical pyrazole compositions useful as inhibitors of protein kinases” (COR Therapeutics, Inc., priority 1995, dated 1999).
# Like-named read-outs stand apart in the source and are kept apart here.
# How the values were obtained:
# Protein Kinase A (PKA) = Protein Kinase A (PKA) (Homo sapiens, UniProt P17612); assay: Protein Kinase A assay (non-radioactive)
# Protein Kinase C (PKC) = assay: Protein Kinase C assay (non-radioactive); details: 40 μM
# human alpha PDGFR = target: T1, human alpha PDGFR (Homo sapiens, UniProt P16234); assay: alpha PDGFR autophosphorylation in 32D-αR cells; type: cell-based; details: for inhibition of protein kinase activity of αPDGFR: compounds of Table 1B, evaluated similar to Example 1
# T1 construct: expressed in transfected cells; host or cells: 32D-αR (mouse hematopoietic cell line 32D)
# Description: The stimulation of cell proliferation by growth factors such as PDGF, FGF and EGF is dependent upon their induction of autophosphorylation of each of their respective receptor's tyrosine kinases. Therefore, the ability of a PTK inhibitor to block cellular proliferation induced by these growth factors is directly correlated with its ability to block receptor autophosphorylation. To measure alpha PDGFR autophosphorylation a previously described mouse hematopoietic cell line, 32D-αR, which had been engineered to overexpresses the human alpha PDGFR was used. These cells were grown in suspension to 10^6 cells/ml in RPMI (Gibco BRL) media containing 10% fetal bovine serum and 5% WEHI conditioned media (tissue culture media conditioned by WEHI cells available from ATCC) as previously described. The cells were pelleted by low speed centrifugation and resuspended in serum-free RPMI prior to distribution at 500,000 cells/well in 96 well conical bottom microtiter plates (Falcon). Compounds (0.01-30 μM) were added to the wells at room temperature 15 minutes prior to the addition of PDGF AA (15 ng/ml) and the incubation was continued on ice for 90 minutes in a final incubation volume of 100 μl. The cells were then pelleted at 2000 rpm for 10 minutes at 4° C. and 50 μl of freshly prepared lysis buffer (20 mM Tris at pH 7.3, 150 mM NaCl, 1% Triton X-100, 1 mM phenylmethyl-sulfonyl fluoride (PMSF), 1 mM sodium orthovanadate, […] and 10 mg/ml leupeptin) was added directly to each well, incubation was continued for 10 minutes on ice and cell lysis was facilitated by vigorous agitation on a plate shaker. The cell lysates were cleared by centrifugation at 2,000 rpm for 10 minutes prior to analysis.
# In a separate microtiter plate, monoclonal antibodies (prepared at COR Therapeutics, Inc.) directed against the extracellular domain of the alpha PDGFR (MAb αR10) or the beta PDGFR (MAb 1B5B11) were immobilized by incubating 0.5 μg of antibody per well at 4° C. for 18 hours in 23 mM Tris at pH 8.0, 68 mM NaCl, 14 mM ammonium bicarbonate and 0.01% sodium azide. Unbound antibody was removed and the wells were blocked with 25 mM N-(2-hydroxyethyl)piperazine-N'-(2-ethanesulfonic acid) (HEPES) pH 7.6, 100 mM NaCl, and 0.2% Tween 20 just prior to the addition of cell lysate that had been diluted 1:2 in binding buffer (blocking buffer with 0.3% gelatin). 32D-αR or HR5-βR cell lysate was incubated with immobilized MAb αR10 or MAb 1B5B11, respectively, for 2 hours at room temperature and wells were washed 3 times with 200 μl of wash buffer (phosphate buffered saline "PBS", 0.01% Tween 20). […] Product formation was monitored at 650 nm using a microtiter plate reader (Molecular Devices).
# human beta PDGFR = human beta PDGFR (Homo sapiens, UniProt P09619); assay: beta PDGFR autophosphorylation in HR5-βR cells; details: for inhibition of protein kinase activity of βPDGFR: compounds of Table 1B, evaluated similar to Example 1
# 32D-αR cells = assay: PDGF induced proliferation ([3H]thymidine incorporation) in 32D-αR cells; type: cell-based; details: Mus musculus
# Experimental: Briefly, 32D-αR cells were grown in interleukin 3 (IL-3)-conditioned RPMI media with 10% fetal bovine serum and washed 2 times with RPMI with 10% fetal bovine serum, resuspended at 5×10^5 cells/ml in the same media and then dispensed at 250 μl/well in 24 well plates (Falcon). […] The cells were incubated for 43 hours followed for a further 3 hour incubation with [^3 H]thymidine (10 μCi/well). The cells are then harvested with an automated cell harvester, filters are placed in liquid scintillation mixture and counted in a β counter.
# WS1 cells = assay: inhibition of cell proliferation under normal tissue culture conditions, WS1; details: Homo sapiens, WS1, 96 h, read-out: IC50 WS1
# src-kinase = src-kinase (Homo sapiens, UniProt P12931); assay: inhibition of recombinant c-src kinase; details: for potency on src kinase activity compared with PDGFR kinase activity: src vs PDGFR
# human FGFR-1 = target: T2, human FGFR-1 (Homo sapiens, UniProt P11362); assay: FGFR-1 autophosphorylation in CHO cells; type: cell-based
# T2 construct: expressed in transfected cells; host or cells: CHO
# Experimental: In order to measure FGFR-1 autophosphorylation, the human FGFR-1 cDNA was stably over-expressed in CHO cells using standard techniques. These cells were grown to confluency in RPMI with 10% fetal bovine serum, the media was replaced with serum-free RPMI and incubation continued for 18 hours prior to stimulation with βFGF (75 ng/ml) for 10 min. at 37° C. in the absence or presence of PTK inhibitors in a concentration range of 0.1-30 μM. Cell lysates were prepared under the same conditions as described above for the EGFR assay. Lysates were incubated with a monoclonal antibody directed against the FGFR-1 extracellular domain (MAb 1H9D3 which was prepared at COR) and the immunoprecipitated receptor was subjected to SDS-PAGE and Western blot analysis with 4G10 horse radish peroxidase conjugated antiphosphotyrosine antibodies (UBI) and detection was done by chemiluminescence (Amersham).
# HS27 cells = assay: inhibition of cell proliferation under normal tissue culture conditions, HS27; details: Homo sapiens, HS27, 96 h, read-out: IC50 HS27
# [1] = test system: human cell lines (HS68, HS 27, CCD18, WS1); assay: inhibition of proliferation of human cell lines under standard tissue culture conditions (collective statement)
# CCD18 cells = assay: inhibition of cell proliferation under normal tissue culture conditions, CCD18; type: cell-based; details: Homo sapiens, 96 h, read-out: IC50 CCD18
# HR5-βR cells = assay: inhibition of cell proliferation under normal tissue culture conditions, HR5-βR; details: for IC50: Cricetulus griseus
# Experimental: The effect of these compounds on normal cell growth was also evaluated with HR5-βR cells which were previously used to measure beta PDGFR autophosphorylation.
# HS68 cells = assay: inhibition of cell proliferation under normal tissue culture conditions, HS68; details: Homo sapiens, Hs68, 96 h, read-out: IC50 HS68
# EGFR = EGFR (Homo sapiens, UniProt P00533); assay: EGFR autophosphorylation in MDA MB 468 cells; type: cell-based; details: EGF 100 ng/ml
# EGFR, sequence (P00533 25-1210): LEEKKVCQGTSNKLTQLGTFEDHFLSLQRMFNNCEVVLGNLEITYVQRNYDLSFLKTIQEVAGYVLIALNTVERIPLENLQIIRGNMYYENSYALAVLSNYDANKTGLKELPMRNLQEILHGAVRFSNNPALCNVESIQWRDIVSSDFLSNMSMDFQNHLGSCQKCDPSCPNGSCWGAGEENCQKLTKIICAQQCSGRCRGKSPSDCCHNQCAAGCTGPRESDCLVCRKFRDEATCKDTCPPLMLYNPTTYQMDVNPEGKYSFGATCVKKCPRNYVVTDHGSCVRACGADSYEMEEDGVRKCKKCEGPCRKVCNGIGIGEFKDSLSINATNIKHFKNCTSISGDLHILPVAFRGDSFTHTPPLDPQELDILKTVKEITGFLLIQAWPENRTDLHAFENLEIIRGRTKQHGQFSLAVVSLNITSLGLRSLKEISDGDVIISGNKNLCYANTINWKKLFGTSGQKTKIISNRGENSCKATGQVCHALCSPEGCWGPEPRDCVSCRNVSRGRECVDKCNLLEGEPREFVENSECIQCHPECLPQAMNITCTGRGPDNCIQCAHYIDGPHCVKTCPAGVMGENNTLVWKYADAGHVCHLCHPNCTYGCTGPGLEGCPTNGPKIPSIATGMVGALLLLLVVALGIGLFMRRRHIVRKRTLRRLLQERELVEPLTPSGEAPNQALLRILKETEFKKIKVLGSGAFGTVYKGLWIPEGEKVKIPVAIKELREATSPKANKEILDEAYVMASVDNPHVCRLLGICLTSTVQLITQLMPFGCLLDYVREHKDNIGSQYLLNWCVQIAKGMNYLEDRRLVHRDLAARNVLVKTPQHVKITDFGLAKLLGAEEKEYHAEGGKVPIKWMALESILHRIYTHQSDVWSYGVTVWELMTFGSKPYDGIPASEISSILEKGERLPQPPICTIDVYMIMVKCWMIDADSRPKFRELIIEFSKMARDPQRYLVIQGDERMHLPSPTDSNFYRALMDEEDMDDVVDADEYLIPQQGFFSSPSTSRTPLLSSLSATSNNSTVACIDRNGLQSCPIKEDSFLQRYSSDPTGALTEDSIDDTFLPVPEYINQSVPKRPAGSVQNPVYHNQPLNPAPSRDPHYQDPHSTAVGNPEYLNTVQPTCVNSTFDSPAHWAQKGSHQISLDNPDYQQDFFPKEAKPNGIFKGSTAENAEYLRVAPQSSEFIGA
# Experimental: These cells were grown to confluency in 6-well plates and incubated in serum-free Dulbecco's Modified Eagle Medium (DMEM) 18 hours. The cells were exposed to various concentrations (0.01-30 μM) of compounds for 15 minutes and then to EGF (100 ng/ml) for 10 minutes at 37° C. The cells were scraped and lysates were prepared in the same buffer as described for 32D-αR cells prior to fractionation by conventional SDS PAGE followed by Western blot analysis. For this, proteins were transferred onto nitrocellulose and the membrane was blocked in Tris buffer saline (TBS), pH 7.0, 0.1% Tween 20, 5% dry milk. The membrane was blotted with anti-phosphotyrosine antibody (UBI, 1 μg/ml) in binding buffer (TBS, 0.1% Tween 20; 1% dry milk) for 2 hours at room temperature. Detection was performed using a goat anti-rabbit-horseradish peroxidase conjugated IgG (Boehringer Mannheim). The blot was developed using a chemiluminescent system (Amersham).
# human beta PDGFR, sequence (P09619 33-1106): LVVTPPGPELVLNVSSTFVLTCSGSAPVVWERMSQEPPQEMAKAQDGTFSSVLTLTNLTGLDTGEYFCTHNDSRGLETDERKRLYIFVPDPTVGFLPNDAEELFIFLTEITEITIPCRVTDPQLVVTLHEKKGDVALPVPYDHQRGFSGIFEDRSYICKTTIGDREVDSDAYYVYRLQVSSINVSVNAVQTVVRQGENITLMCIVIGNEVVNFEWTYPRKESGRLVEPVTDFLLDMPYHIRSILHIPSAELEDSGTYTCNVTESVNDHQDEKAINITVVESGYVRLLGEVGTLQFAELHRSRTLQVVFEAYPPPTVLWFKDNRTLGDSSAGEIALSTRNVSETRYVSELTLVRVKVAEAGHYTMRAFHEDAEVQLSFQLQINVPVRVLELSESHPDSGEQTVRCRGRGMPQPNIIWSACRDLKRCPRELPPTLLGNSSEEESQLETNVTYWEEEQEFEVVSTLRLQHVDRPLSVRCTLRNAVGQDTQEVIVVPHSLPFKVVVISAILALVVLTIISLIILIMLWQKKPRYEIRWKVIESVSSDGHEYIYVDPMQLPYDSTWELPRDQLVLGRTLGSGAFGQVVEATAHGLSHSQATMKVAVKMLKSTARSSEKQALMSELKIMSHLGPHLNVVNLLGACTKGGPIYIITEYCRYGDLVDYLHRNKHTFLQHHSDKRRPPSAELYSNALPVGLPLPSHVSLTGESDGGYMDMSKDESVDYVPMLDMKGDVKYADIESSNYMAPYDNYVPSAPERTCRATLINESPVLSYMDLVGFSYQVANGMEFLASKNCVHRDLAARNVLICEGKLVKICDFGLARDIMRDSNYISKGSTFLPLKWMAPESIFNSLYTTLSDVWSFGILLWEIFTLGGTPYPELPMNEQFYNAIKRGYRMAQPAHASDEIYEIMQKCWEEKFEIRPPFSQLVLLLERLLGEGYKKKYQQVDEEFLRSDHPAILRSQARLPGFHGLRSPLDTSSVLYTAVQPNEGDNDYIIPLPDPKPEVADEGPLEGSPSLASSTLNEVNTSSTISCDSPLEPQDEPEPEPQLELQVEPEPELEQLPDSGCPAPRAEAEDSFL
# src-kinase, sequence (P12931 whole entry): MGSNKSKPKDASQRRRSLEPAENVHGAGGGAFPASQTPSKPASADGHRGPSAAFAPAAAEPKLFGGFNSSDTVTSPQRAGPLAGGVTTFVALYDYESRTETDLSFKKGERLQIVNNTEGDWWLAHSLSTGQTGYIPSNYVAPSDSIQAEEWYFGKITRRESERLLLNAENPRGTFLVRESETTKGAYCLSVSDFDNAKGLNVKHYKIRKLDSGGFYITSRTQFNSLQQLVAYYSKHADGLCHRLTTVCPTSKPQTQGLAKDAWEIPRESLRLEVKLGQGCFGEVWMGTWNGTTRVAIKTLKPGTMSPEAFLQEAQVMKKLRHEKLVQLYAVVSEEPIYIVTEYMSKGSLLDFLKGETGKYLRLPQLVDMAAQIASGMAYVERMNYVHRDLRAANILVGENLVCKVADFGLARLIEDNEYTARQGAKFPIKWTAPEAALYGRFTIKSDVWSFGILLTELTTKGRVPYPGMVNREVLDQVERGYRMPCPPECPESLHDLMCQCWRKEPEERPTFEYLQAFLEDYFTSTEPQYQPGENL
# T1 sequence (P16234 24-1089): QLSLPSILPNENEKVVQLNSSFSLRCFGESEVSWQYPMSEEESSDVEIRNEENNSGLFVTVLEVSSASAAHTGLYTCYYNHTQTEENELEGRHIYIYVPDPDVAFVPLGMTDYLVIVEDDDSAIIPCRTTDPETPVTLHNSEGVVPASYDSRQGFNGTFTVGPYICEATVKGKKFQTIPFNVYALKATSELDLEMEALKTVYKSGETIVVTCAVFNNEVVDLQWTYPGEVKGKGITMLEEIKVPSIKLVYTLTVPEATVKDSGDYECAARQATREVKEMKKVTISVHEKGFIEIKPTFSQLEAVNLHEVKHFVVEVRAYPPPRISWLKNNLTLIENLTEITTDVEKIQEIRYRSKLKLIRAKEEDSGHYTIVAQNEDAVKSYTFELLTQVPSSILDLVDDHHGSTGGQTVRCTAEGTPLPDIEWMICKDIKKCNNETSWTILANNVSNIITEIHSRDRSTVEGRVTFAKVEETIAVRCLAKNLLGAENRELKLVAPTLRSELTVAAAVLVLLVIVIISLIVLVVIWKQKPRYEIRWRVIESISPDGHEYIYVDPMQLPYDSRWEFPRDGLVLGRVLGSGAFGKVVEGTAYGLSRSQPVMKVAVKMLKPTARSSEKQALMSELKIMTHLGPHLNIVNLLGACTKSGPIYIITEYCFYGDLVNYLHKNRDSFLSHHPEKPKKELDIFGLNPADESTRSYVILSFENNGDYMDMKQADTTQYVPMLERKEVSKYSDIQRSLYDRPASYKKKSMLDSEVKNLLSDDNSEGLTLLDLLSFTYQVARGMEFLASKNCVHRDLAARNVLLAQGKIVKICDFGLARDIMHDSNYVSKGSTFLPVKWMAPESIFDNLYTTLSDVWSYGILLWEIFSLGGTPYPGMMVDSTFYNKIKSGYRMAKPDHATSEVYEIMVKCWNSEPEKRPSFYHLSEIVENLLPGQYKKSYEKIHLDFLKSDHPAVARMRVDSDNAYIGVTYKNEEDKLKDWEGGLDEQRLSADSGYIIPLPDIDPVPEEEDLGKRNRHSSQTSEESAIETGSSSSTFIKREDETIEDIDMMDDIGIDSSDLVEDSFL
# T2 sequence (P11362 22-822): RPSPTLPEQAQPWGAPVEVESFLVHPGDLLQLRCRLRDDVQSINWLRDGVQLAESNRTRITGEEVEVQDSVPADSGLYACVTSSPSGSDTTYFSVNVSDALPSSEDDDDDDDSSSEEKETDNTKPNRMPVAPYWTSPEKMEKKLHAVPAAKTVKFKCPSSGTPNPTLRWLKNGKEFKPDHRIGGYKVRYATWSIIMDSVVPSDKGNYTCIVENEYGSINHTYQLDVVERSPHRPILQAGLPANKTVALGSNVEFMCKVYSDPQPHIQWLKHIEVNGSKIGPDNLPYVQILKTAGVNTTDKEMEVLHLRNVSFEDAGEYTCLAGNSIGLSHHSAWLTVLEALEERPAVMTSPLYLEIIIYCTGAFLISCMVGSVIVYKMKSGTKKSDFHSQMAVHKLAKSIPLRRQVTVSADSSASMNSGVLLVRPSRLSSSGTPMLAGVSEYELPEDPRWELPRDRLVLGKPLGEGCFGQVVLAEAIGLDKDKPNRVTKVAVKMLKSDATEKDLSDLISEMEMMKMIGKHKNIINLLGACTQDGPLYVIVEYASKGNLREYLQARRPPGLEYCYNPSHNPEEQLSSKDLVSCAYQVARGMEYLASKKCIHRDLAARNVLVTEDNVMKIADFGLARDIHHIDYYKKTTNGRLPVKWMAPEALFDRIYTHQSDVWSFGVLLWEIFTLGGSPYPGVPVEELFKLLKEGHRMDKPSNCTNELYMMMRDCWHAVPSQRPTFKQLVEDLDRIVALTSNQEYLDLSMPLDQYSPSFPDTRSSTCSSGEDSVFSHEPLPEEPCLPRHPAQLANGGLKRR
compound,measurement,setting,value
"O=C(Nc1cc(-c2ccccc2)[nH]n1)c1ccccc1 [Compound 1, 3-benzoylamino-5-phenylpyrazole]",IC50,Protein Kinase A (PKA),> 40 µM
same,inhibition at 40 µM,Protein Kinase A (PKA); read-out: reduction in PKA activity,< 50%
same,reduction in PKC activity,Protein Kinase C (PKC),< 50%
same,IC50,"human alpha PDGFR; Table 2, autophosphorylation, 32D-αR cells, PDGF AA 15 ng/ml, read-out: IC50 αPDGFR",0.17 µM
same,inhibition of alpha PDGFR autophosphorylation,human alpha PDGFR; compared with beta receptor,inhibit alpha PDGFR autophosphorylation over the same concentration range as that observed for the beta receptor
same,IC50,human beta PDGFR,0.22 µM
same,IC (maximal),human beta PDGFR; read-out: concentration at which inhibition of beta PDGFR autophosphorylation was maximal,5 µM
same,IC50,32D-αR cells; read-out: concentration blocking PDGF induced thymidine incorporation by 50%,0.7 µM
same,IC100,"32D-αR cells; PDGF AA 30 ng/ml, FIG. 2, read-out: concentrations at which mitogenicity was completely inhibited",> 1 µM
same,IC50,WS1 cells,> 30 µM
same,IC50,src-kinase,8 µM
same,potency on src kinase activity compared with PDGFR kinase activity,src-kinase,selective for inhibiting PDGFR kinase activity
same,IC50,"human FGFR-1; Table 2, autophosphorylation, CHO cells, βFGF 75 ng/ml",> 30 µM
same,inhibition of FGFR-1 autophosphorylation,human FGFR-1; concentrations as high as 30 μM,no detectable inhibition
same,IC50,HS27 cells,> 30 µM
same,inhibition at 30 µM,"[1]; Homo sapiens, 96 h, read-out: decrease in cell growth of human cell lines",10 to 20%
same,decrease in cell growth of human cell lines,[1]; concentrations up to 10 μM,no decrease in cell growth
same,IC50,CCD18 cells,> 30 µM
same,IC50,"HR5-βR cells; 96 h, read-out: IC50 HRS-βR",28 µM
same,IC50,HS68 cells,> 30 µM
O=C(Nc1cc(-c2ccc(Cl)cc2)n[nH]1)c1ccccc1 [Compound 45],inhibition of protein kinase activity of αPDGFR,human alpha PDGFR,exhibited the best activities
same,inhibition of protein kinase activity of βPDGFR,human beta PDGFR,exhibited the best activities
O=C(Nc1cc(-c2cccs2)n[nH]1)c1ccccc1 [Compound 46],inhibition of protein kinase activity of αPDGFR,human alpha PDGFR,exhibited the best activities
same,inhibition of protein kinase activity of βPDGFR,human beta PDGFR,exhibited the best activities
COC(=O)[C@@]1(O)C[C@H]2O[C@]1(C)n1c3ccccc3c3c4c(c5c6ccccc6n2c5c31)C(=O)NC4 [Compound K252a],IC50,"src-kinase; read-out: IC50 src-kinase, recombinant c-src, 50 μM ATP",0.02 µM
same,IC50,"src-kinase; read-out: src kinase IC50, recombinant c-src",0.02 µM
same,potency on src kinase activity compared with PDGFR kinase activity,src-kinase,equally or more potent at inhibiting src kinase activity as they are PDGFR kinase activity
same,IC50,EGFR,1 µM
same,HR5-βR growth inhibition compared with inhibition of PDGFR phosphorylation,HR5-βR cells,lower concentrations than those required to inhibit PDGFR phosphorylation
same,IC50,"HR5-βR cells; 96 h, read-out: IC50 HRS-βR",0.13 µM
same,IC50,HR5-βR cells; read-out: IC50 HR5-βR cell growth,0.13 µM
"CN[C@@H]1C[C@H]2O[C@@](C)([C@@H]1OC)n1c3ccccc3c3c4c(c5c6ccccc6n2c5c31)C(=O)NC4 [Staurosporin, reference compound]",potency on src kinase activity compared with PDGFR kinase activity,src-kinase,equally or more potent at inhibiting src kinase activity as they are PDGFR kinase activity
same,growth of all of the human cell lines,[1]; 0.01 μM,completely blocked
